{"source": "patent US20160287672A1", "about": "“METHOD OF TREATING CHRONIC HEART FAILURE BY ADMINISTERING RELAXIN” (priority 2008, published 2016)", "key": {"[1]": {"system": "systemic sclerosis patients", "details": "scleroderma patients (Seibold et al. 2000); cited from earlier work"}, "healthy volunteers": {"system": "healthy volunteers", "details": "cited from earlier work"}, "[2]": {"system": "patients with chronic and stable compensated congestive HF", "test": "Open-label pilot study of IV recombinant relaxin over 24 hours in chronic heart failure patients", "format": "in vivo, human", "details": "for CI Change from baseline / CO Change from baseline / DBP Change from baseline / HR Change from baseline / PAP Change from baseline / PCWP Change from baseline / PVR Change from baseline / RAP Change from baseline / SBP Change from baseline / SVR Change from baseline: 8 hr, mean ± SD", "procedure": "Overview. In this open-label study 16 patients with chronic and stable compensated congestive HF were enrolled in three dose-ascending cohorts of recombinant intravenous relaxin (10 to 960 mcg/kg/day) over 24 hours. Relaxin produced increases in cardiac index and stroke volume, and a decrease in pulmonary wedge pressure and NT-pro BNP. It improved markers of renal function, with a small rebound at the highest dose during post-infusion. […] A maximally tolerated dose was determined.\nDesign of Study. In this single-center, open-label study, 16 patients who fulfilled inclusion and but not exclusion criteria for chronic and stable compensated congestive HF were sequentially allocated to three ascending cohorts of intravenous (IV) relaxin. Main inclusion criteria included: Age >18 years; NYHA CHF Class II-III without restriction on etiology; left ventricular ejection fraction <35% within 6 months of enrollment; receiving established oral HF therapy expected to remain unchanged during the study period. Main exclusion criteria included: Wedge pressure <16 mmH or CI >2.5 L/min/m2; acute coronary syndrome (within 4 weeks) or recent myocardial infarction or cardiac surgery (within 6 months); AHF requiring intravenous therapy at baseline; systolic blood pressure <85 mmHg; uncorrected valvular heart disease, except for relative mitral and/or tricuspid valve insufficiency; obstructive or restrictive cardiomyopathy; recent episode of ventricular tachycardia or fibrillation (within 4 weeks); recent stroke (within 3 months); creatinine >2.0 mg/dl or serum transaminases and/or total bilirubin >2.5 times the upper limit of normal at screening visit; history of endometriosis.\nThe study drug was relaxin (produced by recombinant technology). Recombinant relaxin is identical to the native human hormone H2 relaxin. The dose escalation was as follows: Group A included sequential treatment for 8 hours each with dosages equivalent to 10, 30, and 100 mcg/kg/day. Group B included sequential treatment for 8 hours each with dosages equivalent to 240, 480, and 960 mcg/kg/day. Group C received 24 hours of treatment with 960 mcg/kg/day. Escalation from Group A to Group B was done after examining safety and tolerability of the doses used in Group A. Escalation from Group B to C occurred after the safety and tolerability of the highest dose in Group B (960 mcg/kg/day) was determined.\nPatients were monitored in the intensive care unit for the infusion and post-infusion periods (24 hours either). Hemodynamic measurements, including CI, SVR, PCWP, SBP, RAP, and PVR, were serially performed using Swan-Ganz and arterial catheters. Likewise, clinical and laboratory monitoring was carried out serially throughout infusion and post-infusion and on Day 9 after beginning of infusion. An additional 30-day evaluation for serious adverse events was performed by phone. Endpoints included hemodynamic and neurohumoral (NT-pro BNP levels) changes from baseline, as well as monitoring of vital signs, electrocardiogram, serum chemistry, and hematology parameters throughout the study. For statistical analysis, an error probability of P<0.05 was regarded as significant. Baseline values were compared using the Kruskal-Wallis ANOVA on ranks followed by Dunn's test. Differences over time within the single groups (hemodynamics, renal parameter, and peptide levels) were analyzed with a Friedman Repeated Measures Analysis of Variance on Ranks followed by Dunn's test for comparison against the baseline."}}, "data": [{"substance": "relaxin: Study drug produced by recombinant technology, identical to the native human hormone H2 relaxin; peptide hormone of A and B chains", "values": [{"measurement": "predicted creatinine clearance", "setting": "[1]", "value": "sustained amelioration"}, {"measurement": "renal blood flow", "setting": "healthy volunteers", "value": "increases renal blood flow"}, {"measurement": "creatinine increases post-infusion", "setting": "[2]; Day 9, after doses equivalent to 960 mcg/kg/day IV", "value": "≤ 0.5", "unit": "mg/dL"}, {"measurement": "CI Change from baseline", "setting": "[2]; Group A, 10 mcg/kg/d IV", "value": "0.08 ± 0.3", "unit": "L/min/m2"}, {"measurement": "CO Change from baseline", "setting": "[2]; Group A, 10 mcg/kg/d IV", "value": "0.13 ± 0.5", "unit": "L/min"}, {"measurement": "DBP Change from baseline", "setting": "[2]; Group A, 10 mcg/kg/d IV", "value": "−3.0 ± 4.2", "unit": "mmHg"}, {"measurement": "HR Change from baseline", "setting": "[2]; Group A, 10 mcg/kg/d IV", "value": "3.3 ± 7.6", "unit": "beats/min"}, {"measurement": "PAP Change from baseline", "setting": "[2]; Group A, 10 mcg/kg/d IV", "value": "−3.75 ± 4.1", "unit": "mmHg"}, {"measurement": "PCWP Change from baseline", "setting": "[2]; Group A, 10 mcg/kg/d IV", "value": "−1.8 ± 1.9", "unit": "mmHg"}, {"measurement": "PVR Change from baseline", "setting": "[2]; Group A, 10 mcg/kg/d IV", "value": "−17.3 ± 60.5", "unit": "dynes * sec/cm5"}, {"measurement": "RAP Change from baseline", "setting": "[2]; Group A, 10 mcg/kg/d IV", "value": "0.8 ± 0.9", "unit": "mmHg"}, {"measurement": "SBP Change from baseline", "setting": "[2]; Group A, 10 mcg/kg/d IV", "value": "−12.5 ± 9.3", "unit": "mmHg"}, {"measurement": "SVR Change from baseline", "setting": "[2]; Group A, 10 mcg/kg/d IV", "value": "−143 ± 140", "unit": "dynes * sec/cm5"}, {"measurement": "CI Change from baseline", "setting": "[2]; Group A, 30 mcg/kg/d IV", "value": "0.25 ± 0.4", "unit": "L/min/m2"}, {"measurement": "CO Change from baseline", "setting": "[2]; Group A, 30 mcg/kg/d IV", "value": "0.45 ± 0.6", "unit": "L/min"}, {"measurement": "DBP Change from baseline", "setting": "[2]; Group A, 30 mcg/kg/d IV", "value": "2.5 ± 10.9", "unit": "mmHg"}, {"measurement": "HR Change from baseline", "setting": "[2]; Group A, 30 mcg/kg/d IV", "value": "2.3 ± 16.2", "unit": "beats/min"}, {"measurement": "PAP Change from baseline", "setting": "[2]; Group A, 30 mcg/kg/d IV", "value": "−4.0 ± 5.5", "unit": "mmHg"}, {"measurement": "PCWP Change from baseline", "setting": "[2]; Group A, 30 mcg/kg/d IV", "value": "−5.0 ± 2.6", "unit": "mmHg"}, {"measurement": "PVR Change from baseline", "setting": "[2]; Group A, 30 mcg/kg/d IV", "value": "−0.5 ± 56.7", "unit": "dynes * sec/cm5"}, {"measurement": "RAP Change from baseline", "setting": "[2]; Group A, 30 mcg/kg/d IV", "value": "−1.0 ± 1.8", "unit": "mmHg"}, {"measurement": "SBP Change from baseline", "setting": "[2]; Group A, 30 mcg/kg/d IV", "value": "−5.3 ± 16.8", "unit": "mmHg"}, {"measurement": "SVR Change from baseline", "setting": "[2]; Group A, 30 mcg/kg/d IV", "value": "−171 ± 159", "unit": "dynes * sec/cm5"}, {"measurement": "CI Change from baseline", "setting": "[2]; Group A, 100 mcg/kg/d IV", "value": "0.25 ± 0.2", "unit": "L/min/m2"}, {"measurement": "CO Change from baseline", "setting": "[2]; Group A, 100 mcg/kg/d IV", "value": "0.45 ± 0.2", "unit": "L/min"}, {"measurement": "DBP Change from baseline", "setting": "[2]; Group A, 100 mcg/kg/d IV", "value": "−5.0 ± 3.7", "unit": "mmHg"}, {"measurement": "HR Change from baseline", "setting": "[2]; Group A, 100 mcg/kg/d IV", "value": "0.5 ± 1.3", "unit": "beats/min"}, {"measurement": "PAP Change from baseline", "setting": "[2]; Group A, 100 mcg/kg/d IV", "value": "−4.5 ± 4.2", "unit": "mmHg"}, {"measurement": "PCWP Change from baseline", "setting": "[2]; Group A, 100 mcg/kg/d IV", "value": "−3.5 ± 3.7", "unit": "mmHg"}, {"measurement": "PVR Change from baseline", "setting": "[2]; Group A, 100 mcg/kg/d IV", "value": "−25.3 ± 28.9", "unit": "dynes * sec/cm5"}, {"measurement": "RAP Change from baseline", "setting": "[2]; Group A, 100 mcg/kg/d IV", "value": "−0.8 ± 1.2", "unit": "mmHg"}, {"measurement": "SBP Change from baseline", "setting": "[2]; Group A, 100 mcg/kg/d IV", "value": "−13.0 ± 8.3", "unit": "mmHg"}, {"measurement": "SVR Change from baseline", "setting": "[2]; Group A, 100 mcg/kg/d IV", "value": "−288 ± 92", "unit": "dynes * sec/cm5"}, {"measurement": "time course of NT-pro BNP", "setting": "[2]; Group B", "value": "no change"}, {"measurement": "CI Change from baseline", "setting": "[2]; Group B, 240 mcg/kg/d IV", "value": "0.28 ± 0.2", "unit": "L/min/m2"}, {"measurement": "CO Change from baseline", "setting": "[2]; Group B, 240 mcg/kg/d IV", "value": "0.62 ± 0.4", "unit": "L/min"}, {"measurement": "DBP Change from baseline", "setting": "[2]; Group B, 240 mcg/kg/d IV", "value": "3.0 ± 6.0", "unit": "mmHg"}, {"measurement": "HR Change from baseline", "setting": "[2]; Group B, 240 mcg/kg/d IV", "value": "1.7 ± 6.7", "unit": "beats/min"}, {"measurement": "PAP Change from baseline", "setting": "[2]; Group B, 240 mcg/kg/d IV", "value": "−1.7 ± 1.6", "unit": "mmHg"}, {"measurement": "PCWP Change from baseline", "setting": "[2]; Group B, 240 mcg/kg/d IV", "value": "−1.5 ± 1.9", "unit": "mmHg"}, {"measurement": "PVR Change from baseline", "setting": "[2]; Group B, 240 mcg/kg/d IV", "value": "−14.8 ± 16.9", "unit": "dynes * sec/cm5"}, {"measurement": "RAP Change from baseline", "setting": "[2]; Group B, 240 mcg/kg/d IV", "value": "0.3 ± 1.4", "unit": "mmHg"}, {"measurement": "SBP Change from baseline", "setting": "[2]; Group B, 240 mcg/kg/d IV", "value": "−2.5 ± 7.4", "unit": "mmHg"}, {"measurement": "SVR Change from baseline", "setting": "[2]; Group B, 240 mcg/kg/d IV", "value": "−150 ± 138", "unit": "dynes * sec/cm5"}, {"measurement": "CI Change from baseline", "setting": "[2]; Group B, 480 mcg/kg/d IV", "value": "0.17 ± 0.3", "unit": "L/min/m2"}, {"measurement": "CO Change from baseline", "setting": "[2]; Group B, 480 mcg/kg/d IV", "value": "0.33 ± 0.7", "unit": "L/min"}, {"measurement": "DBP Change from baseline", "setting": "[2]; Group B, 480 mcg/kg/d IV", "value": "0.0 ± 7.2", "unit": "mmHg"}, {"measurement": "HR Change from baseline", "setting": "[2]; Group B, 480 mcg/kg/d IV", "value": "−1.8 ± 4.5", "unit": "beats/min"}, {"measurement": "PAP Change from baseline", "setting": "[2]; Group B, 480 mcg/kg/d IV", "value": "1.7 ± 2.7", "unit": "mmHg"}, {"measurement": "PCWP Change from baseline", "setting": "[2]; Group B, 480 mcg/kg/d IV", "value": "0.33 ± 2.6", "unit": "mmHg"}, {"measurement": "PVR Change from baseline", "setting": "[2]; Group B, 480 mcg/kg/d IV", "value": "5.5 ± 35.2", "unit": "dynes * sec/cm5"}, {"measurement": "RAP Change from baseline", "setting": "[2]; Group B, 480 mcg/kg/d IV", "value": "0.5 ± 1.1", "unit": "mmHg"}]}]}
